Results on two compounds are retold here after patent US8367659B2, “Oxazinyl isoflavonoid compounds, medicaments and use” (Marshall Edwards, Inc., priority 2007, dated 2013).

Assay [1] addresses T1, GAL4-PPARγ fusion protein (Homo sapiens, UniProt P37231).
T1 construct: host or cells: HEK293 (human embryonic kidney), stably transfected
Briefly: PPARγ activity in transfected HEK293 cells (beta-lactamase reporter). The format is cell-based. Particulars: FIG. 13: 1 μM. The method, boiled down: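 HEK293 cells stably expressing GAL4-DBD/PPARγ-LBD fusion with beta-lactamase reporter, treated with compound at 1, 5 and 10 μM for 16-18 h. Beta-lactamase read via FRET substrate (2 h, room temperature), ex 409 nm, em 460/530 nm; background-subtracted emission ratio.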

For a further assay, the system named is T cells. Briefly: T cell proliferation (ConA-stimulated mouse splenocytes, MTT). It counts as cell-based, Skh-1:HR 1 (hairless) mice. As to conditions: 10 μM, 3 days. On the procedure: (§1) Male Skh-1:HR 1 (hairless) mice, approximately six weeks old were killed by cervical dislocation. Single cell suspensions were made from the spleen and erythrocytes were lysed in buffer (0.14 M NH4Cl, 17 mM Tris, pH 7.2). The remaining splenocytes were cultured in RPMI-1640 (Gibco) supplemented with 10% (v:v) FBS, 200 mM L-glutamine, penicillin/streptomycin and […] 2-mercaptoethanol. Splenocytes were added to quadruplicate wells containing either concanavalin A (ConA, Sigma-Aldrich—0.4 μg/well), LPS (Sigma-Aldrich—1 μg/well) or no mitogen, as well 10 μM of test compound in DMSO. Samples were analysed after 3 days incubation at 37° C. in 5% CO2 in air. Methylthiazoletetrazolium (MTT) is bioreduced by viable cells into a coloured formazan product that is soluble in DMSO. Thus the quantity of formazan product is directly proportional to the number of living cells in culture, and can be measured using a spectrophotometer at 570 nm. MTT was added to each well, incubated for a further 4 hrs and then colour developed with 0.04 N HCl in isopropanol. Culture supernatants were stored after collection at −80° C. and analysed by ELISA (BD Biosciences) for IFN-γ (a Th-1 cytokine) and for T cells alone, IL-6 (a Th-2 cytokine).

The next assay deals with B cells. As to the kind of experiment: B cell proliferation (LPS-stimulated mouse splenocytes, MTT). It counts as cell-based, Skh-1:HR 1 (hairless) mice. Particulars: 10 μM, 3 days. As to the method: as §1
Assay [2] has as its system low density lipoprotein (LDL). As to the kind of experiment: Inhibition of Cu2+-induced oxidation of LDL (lipid peroxides, FOX assay). It counts as biochemical. On the procedure:
Blood was collected by venipuncture and plasma separated by centrifugation. LDL was then isolated from plasma using a 4-step sodium chloride density gradient and ultracentrifuged at 200,000 g for 20 hours at 4° C. The collect LDL was purified by passage through gel filtration PD10 column to remove excess salt and EDTA, and stored in the dark at 4° C. to prevent auto-oxidation and used with two weeks of isolation. The LDL cholesterol content was measure using a standard enzymatic method and protein concentration determined by the Lowry method using BSA as the standard.
[…] Oxidation reactions were initiated by the addition of freshly prepared Cu^2+ solution, such that the final concentration of CuSO4 was 5 μM. […] The extent of lipoprotein oxidation was determined by measuring the formation of lipid-peroxides on aliquots removed every 30-minute over a 3-hour period. Peroxides were determined at each time point by the ferrous oxidation-xylenol orange (FOX) assay using standard hydrogen peroxide curve (5 to 200 μM). Compounds (1) and (2) were examined in at least two separate experiments performed on separate days.

Assay [3] has as its system PGE2 synthesis in RAW 264.7 murine macrophages. Briefly: LPS-induced PGE2 synthesis in RAW 264.7 murine macrophages. It counts as cell-based, mouse. As to conditions: 10 μM; relative to vehicle alone; FIG. 3. As to the method:
The mouse macrophage cell line RAW 264.7 was cultured in DMEM supplemented with foetal calf serum (FCS), […] glutamine and 50 U/ml penicillin/streptomycin. Cells were treated with either test compound (in 0.025% DMSO) or vehicle alone, and added one hour before 50 ng/ml LPS. After incubation for 24 h, culture media was collected for PGE2 or TXB2 measurement by ELISA (Cayman Chemical), and TNFα measurement using an ELISA (Becton Dickinson). Test compounds were examined a concentration of 10 μM. […] Consequently, to assess the effect of test compounds on various analytes, cell viability was taken into consideration with the use of the formula: Actual effect of test compound=measured effect−(effect on cell viability×measured effect)

The test system of assay [4] is caspase-3/7 activity in A7r5 rat aortic smooth muscle cells. As to the kind of experiment: Caspase-3/7 activity (apoptosis) in A7r5 rat aortic smooth muscle cells. It counts as cell-based. As to conditions: 10, 50 and 100 μM; FIG. 14. The source says: Activation of the caspase cascade is an integral event in the apoptotic pathway. Caspase-3 is one of the important “executioner” caspase enzymes, triggering the cleavage of numerous proteins that lead to the ordered breakdown of cells. The detection of caspase-3 activation is frequently used as a positive marker for apoptosis. A homogeneous luminescent caspase-3/7 assay, the Caspase-Glo™ 3/7 Assay (Promega Corp.) was used to provide an extremely sensitive measure of caspase activation. VSMC were incubated with different concentrations (0 [vehicle alone], 10, 50 and 100 μM) of test compounds. The assay used a proluminescent substrate containing the DEVD sequence recognized by caspase-3 and -7. The caspase-Glo™ 3/7 Reagent produced luminescence that is directly proportional to the amount of caspase-3/7 activity. The luminescence is linear over four orders of magnitude of caspase concentration and over a broad range of cell densities.

T1 sequence (P37231 238-503 limits assumed): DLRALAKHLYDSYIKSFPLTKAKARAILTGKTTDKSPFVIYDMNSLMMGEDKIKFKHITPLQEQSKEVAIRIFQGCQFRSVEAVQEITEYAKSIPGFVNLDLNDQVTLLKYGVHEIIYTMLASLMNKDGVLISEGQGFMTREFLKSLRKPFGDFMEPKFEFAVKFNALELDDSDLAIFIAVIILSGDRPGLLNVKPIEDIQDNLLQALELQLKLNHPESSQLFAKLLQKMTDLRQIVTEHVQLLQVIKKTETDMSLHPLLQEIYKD
T1 sequence (P04386 1-147 partner limits assumed): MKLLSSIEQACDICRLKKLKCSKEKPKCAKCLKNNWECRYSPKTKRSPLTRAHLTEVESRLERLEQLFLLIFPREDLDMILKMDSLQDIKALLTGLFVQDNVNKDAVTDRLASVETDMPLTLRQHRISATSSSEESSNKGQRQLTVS

For the compound `CC(c1ccccc1)N1COc2cc3c(cc2C1)C=C(c1ccc(O)cc1)CO3` (stereo not drawn) [Compound 2, 4-(3-(1-Phenylethyl)-2,3,4,8-tetrahydrochromeno[6,7-e][1,3]oxazin-7-yl)phenol], the “PPARγ activation, increase in beta-lactamase activity over media only control” value in assay [1] is on record as “PPARγ agonist activity”. For the same compound, in the assay with T cells, the “effect on T cells” value is “markedly and significantly immunosuppressive”. Also, the “effect on B cells” value in the assay on B cells was “markedly and significantly immunosuppressive”. Besides, the EC50 in assay [2] (LDL 0.1 mg/mL, CuSO4 5 μM, read-out: EC50, concentration at which 50% of the LDL oxidation was inhibited) turned out to be 630 nM. The lipid peroxide formation is listed as 10.5 ± 2.93 in assay [2] (LDL 0.1 mg/ml + compound 0.1 μM + Cu^++ 5 μM, 0 min); 13.9 ± 2.51 in assay [2] (LDL 0.1 mg/ml + compound 0.1 μM + Cu^++ 5 μM, 30 min); 23.7 ± 4.71 in assay [2] (LDL 0.1 mg/ml + compound 0.1 μM + Cu^++ 5 μM, 60 min); 75.1 ± 8.43 in assay [2] (LDL 0.1 mg/ml + compound 0.1 μM + Cu^++ 5 μM, 90 min); 138.5 ± 2.94 in assay [2] (LDL 0.1 mg/ml + compound 0.1 μM + Cu^++ 5 μM, 120 min); 173.7 ± 34.4 in assay [2] (LDL 0.1 mg/ml + compound 0.1 μM + Cu^++ 5 μM, 180 min). Further, the lipid peroxide formation is 10.22 ± 2.9 in assay [2] (LDL 0.1 mg/ml + compound 1.0 μM + Cu^++ 5 μM, 0 min); 11.62 ± 2.4 in assay [2] (LDL 0.1 mg/ml + compound 1.0 μM + Cu^++ 5 μM, 30 min); 12.08 ± 3.2 in assay [2] (LDL 0.1 mg/ml + compound 1.0 μM + Cu^++ 5 μM, 60 min); 18.25 ± 3.2 in assay [2] (LDL 0.1 mg/ml + compound 1.0 μM + Cu^++ 5 μM, 90 min); 35.12 ± 0.4 in assay [2] (LDL 0.1 mg/ml + compound 1.0 μM + Cu^++ 5 μM, 120 min); 133.1 ± 18.3 in assay [2] (LDL 0.1 mg/ml + compound 1.0 μM + Cu^++ 5 μM, 180 min). Also, the lipid peroxide formation is given as 10.20 ± 2.6 in assay [2] (LDL 0.1 mg/ml + compound 10 μM + Cu^++ 5 μM, 0 min); 15.99 ± 0.1 in assay [2] (LDL 0.1 mg/ml + compound 10 μM + Cu^++ 5 μM, 30 min); 18.26 ± 0.8 in assay [2] (LDL 0.1 mg/ml + compound 10 μM + Cu^++ 5 μM, 60 min); 20.64 ± 1.3 in assay [2] (LDL 0.1 mg/ml + compound 10 μM + Cu^++ 5 μM, 90 min); 23.68 ± 1.2 in assay [2] (LDL 0.1 mg/ml + compound 10 μM + Cu^++ 5 μM, 120 min); 24.6 ± 21.9 in assay [2] (LDL 0.1 mg/ml + compound 10 μM + Cu^++ 5 μM, 180 min). Moreover, the lipid peroxide formation in assay [2] (LDL 0.1 mg/ml + compound 100 μM + Cu^++ 5 μM, 0 min) is listed as 12.09 ± 2.8; in assay [2] (LDL 0.1 mg/ml + compound 100 μM + Cu^++ 5 μM, 30 min) it was 15.93 ± 5.4; in assay [2] (LDL 0.1 mg/ml + compound 100 μM + Cu^++ 5 μM, 60 min), 19.40 ± 7.8; in assay [2] (LDL 0.1 mg/ml + compound 100 μM + Cu^++ 5 μM, 90 min), 23.27 ± 8.7; in assay [2] (LDL 0.1 mg/ml + compound 100 μM + Cu^++ 5 μM, 120 min), 28.76 ± 5.0; in assay [2] (LDL 0.1 mg/ml + compound 100 μM + Cu^++ 5 μM, 180 min), 28.6 ± 12.9. The lipid peroxide formation in assay [2] (compound 100 μM + Cu^++ 5 μM, without LDL, 0 min) is 7.69 ± 3.8; in assay [2] (compound 100 μM + Cu^++ 5 μM, without LDL, 30 min), 14.97 ± 0.4; in assay [2] (compound 100 μM + Cu^++ 5 μM, without LDL, 60 min), 19.19 ± 2.1; in assay [2] (compound 100 μM + Cu^++ 5 μM, without LDL, 90 min), 24.30 ± 4.3; in assay [2] (compound 100 μM + Cu^++ 5 μM, without LDL, 120 min), 28.31 ± 2.8; in assay [2] (compound 100 μM + Cu^++ 5 μM, without LDL, 180 min) it was 33.20 ± 6.7. In addition, the “mean change of LPS-induced PGE2 synthesis” value in assay [3] was “greatest inhibition”.
For the compound `Oc1cccc(C2=Cc3ccc(O)cc3OC2)c1` [Compound 37-DHE, 3′,7-dihydroxy-isoflav-3-ene, reference compound], the “induction of caspase-3/7 activity, apoptosis” value in assay [4] is on record as “no activity”.
